This is an account of results in patent publication US11358970B2, “Artemisinin-derived trimers and tetramers and their use thereof” (priority 2017, dated 2022).

In one assay the test system is cytomegalovirus. As to conditions: relative to artesunate; cited from earlier work.
The next assay deals with 23 leukemia cell lines. As to conditions: average over 23 leukemia cell lines, relative to artesunate; cited from earlier work.
A further assay deals with HepG2 cell line. As to the kind of experiment: MTT cytotoxicity assay, HepG2 cell line. The format is cell-based. As to the method:
(§1) Both reference and test compounds were dissolved in DMSO in a 10-concentration and 3-fold serial dilution format. 50 nl stock solution of test compounds or 25 nl of reference compounds were delivered from the source plate to the wells of 384-well cell culture plates. 25 μl of culture medium containing 2,000 corresponding cancer cells were added to the wells. The plates were incubated at 37° C. in a humidified atmosphere of 5% CO2 and 95% air for 72 hours. 4 μl of MTT Dye Solution was added to each well and the plates were incubated at 37° C. in a CO2 incubator for 4 hours. After incubation, the formazan was produced in the cells. 25 μl of Solubilization/Stop Solution was added to each well and the plates were incubated for another 1 hour at 37° C. in a CO2 incubator to dissolve the formazan crystals.
(§2) The absorbance of each sample was measured at 590 nm using Envision 2104 Multilabel Reader (PerkinElmer, Santa Clara, Calif.). The cell viability was determined based on the quantification of the color intensity in each culture well. The inhibitory curves were plotted and the IC50 values were calculated using GraphPad Prism 4 program based on a sigmoidal dose-response equation.

The subject of assay [1] is MOLT4 (human T-cell acute lymphoblastic leukemia). In words: MTT cytotoxicity assay, MOLT4 cell line. The class given is cell-based. As to conditions: read-out: IC50 MOLT4. As to the method: (§3) Artesunate and dihydroartemisinin were purchased from AK Scientific (Union City, Calif.). CellTiter 96® Non-Radioactive Cell Proliferation Assay (MTT) reagent was purchased from Promega (Madison, Wis.). A549 (human lung carcinoma), HeLa (human cervical carcinoma), MOLT4 (human T-cell acute lymphoblastic leukemia) were purchased from American Type Culture Collection (Manassas, Va.) and cultured in Ham's F-12 K media supplemented with 10% FBS, 100 μg/ml of penicillin and 100 μg/ml of streptomycin. The culture was maintained at 37° C. in a humidified atmosphere of 5% CO2 and 95% air.
as §1, §2
(In general: Tetrazolium dyes change colour on reduction, which living cells bring about.)

The test system of assay [2] is HeLa (human cervical carcinoma). In words: MTT cytotoxicity assay, HeLa cell line. The format is cell-based. Particulars: read-out: IC50 HeLa. As to the method:
as §3, §1, §2

For assay [3], the system named is A549 (human lung carcinoma). As to the kind of experiment: MTT cytotoxicity assay, A549 cell line. The format is cell-based. As to conditions: 72 hours; for inhibition at 0.1 µM / inhibition at 0.25 µM / inhibition at 0.5 µM / inhibition at 1 µM: Homo sapiens. As to the method:
as §3, §1, §2

Where [4] appears, read: Homo sapiens, MOLT-4, MOLT4, 72 hours, MTT.
Setting [5] is: HepG2, MTT, read-out: IC50 HepG2.
The mark [6] stands for this setting: Homo sapiens, HepG2, MTT, read-out: IC50 HepG2.

Structures are written as SMILES. Where two headings read alike, the source gives them in different places.

Turning to `C[C@@H]1CCC2[C@@H](C)[C@@H](CC(COP(=O)(Oc3ccccc3)Oc3ccccc3)C[C@H]3O[C@@H]4O[C@@]5(C)CCC6[C@H](C)CCC([C@H]3C)[C@]64OO5)O[C@@H]3O[C@@]4(C)CCC1[C@@]23OO4` (some centres unmarked) [ART838], the “fold more potent in inhibiting growth of cytomegalovirus than artesunate” value with cytomegalovirus is on record as 165 fold. Besides, in the assay with 23 leukemia cell lines, the “folds more potent than artesunate in inhibiting 23 leukemia cell lines (average)” value is recorded as 88 folds.

`C[C@H]1[C@H](OC(=O)CCC(=O)O)O[C@@H]2O[C@@]3(C)CC[C@H]4[C@H](C)CC[C@@H]1[C@@]24OO3` [Artesunate, reference compound]: the IC50 in the assay on HepG2 cell line (Homo sapiens, HepG2, read-out: IC50 HepG2) was found to be 11200 nM; in assay [1] (Homo sapiens, MOLT-4, 72 h) it was 1010 nM; in assay [2] (Homo sapiens, 72 h), 9570 nM.

For `C[C@H]1[C@H](OC(=O)CCC(=O)OCCN(CCOC(=O)CCC(=O)O[C@@H]2O[C@@H]3O[C@]4(C)CC[C@H]5[C@H](C)CC[C@@H]([C@H]2C)[C@@]35OO4)CCOC(=O)CCC(=O)O[C@@H]2O[C@@H]3O[C@]4(C)CC[C@H]5[C@H](C)CC[C@@H]([C@H]2C)[C@@]35OO4)O[C@@H]2O[C@@]3(C)CC[C@H]4[C@H](C)CC[C@@H]1[C@@]24OO3` [Compound 1], at 0.1 µM the inhibition in assay [3] (0.1 μM) was 10%. This compound also yielded an inhibition at 0.25 µM in assay [3] (0.25 μM) of 14%. The inhibition at 0.5 µM in assay [3] (0.5 μM) was 20%. Moreover, the inhibition at 1 µM in assay [3] (1.0 μM) is 47%. The IC50 worked out at 318 nM in assay [1] (setting [4]) and 1720 nM in assay [2] (Homo sapiens, 72 hours, MTT).

Turning to `C[C@@H]1CC[C@H]2[C@@H](C)C(OC(=O)CN(CC(=O)OC3O[C@@H]4O[C@@]5(C)CC[C@H]6[C@H](C)CC[C@@H]([C@H]3C)[C@@]46OO5)CC(=O)OC3O[C@@H]4O[C@@]5(C)CC[C@H]6[C@H](C)CC[C@@H]([C@H]3C)[C@@]46OO5)O[C@@H]3O[C@@]4(C)CC[C@@H]1[C@]32OO4` (some centres unmarked) [Compound 2], the “Inhibition (%)” value in assay [3] (0.1 μM) turned out to be 12%; in assay [3] (0.25 μM), 20%; in assay [3] (0.5 μM), 21%; in assay [3] (1.0 μM), 40%. Moreover, the IC50 in assay [1] (MOLT4, 72 hours, MTT) is 320 nM; in assay [2] (72 hours, MTT), 1140 nM.

On to `CC1CCC2C(C)C(OC(=O)CCC(=O)OCC(COC(=O)CCC(=O)OC3OC4OC5(C)CCC6C(C)CCC(C3C)C46OO5)OC(=O)CCC(=O)OC3OC4OC5(C)CCC6C(C)CCC(C3C)C46OO5)OC3OC4(C)CCC1C32OO4` (centres unmarked) [Compound 3], for which the IC50 was 830 nM with HepG2 cell line (setting [5]); 60 nM in assay [1] (MOLT4, 72 hours, MTT); 630 nM in assay [2] (72 hours, MTT).

Take `C[C@H]1[C@H](OC(=O)CCC(=O)NC(COC(=O)CCC(=O)O[C@@H]2O[C@@H]3O[C@@]4(C)CC[C@H]5[C@H](C)CC[C@@H]([C@H]2C)[C@@]35OO4)COC(=O)CCC(=O)O[C@@H]2O[C@@H]3O[C@@]4(C)CC[C@H]5[C@H](C)CC[C@@H]([C@H]2C)[C@@]35OO4)O[C@@H]2O[C@@]3(C)CC[C@H]4[C@H](C)CC[C@@H]1[C@@]24OO3` [Compound 4]: the IC50 in the assay with HepG2 cell line (setting [6]) worked out at 1790 nM.

In assay [3] (0.1 μM), `C[C@H]1[C@H](OC(=O)CCC(=O)OCC(COC(=O)CCC(=O)O[C@@H]2O[C@@H]3O[C@@]4(C)CC[C@H]5[C@H](C)CC[C@@H]([C@H]2C)[C@@]35OO4)(COC(=O)CCC(=O)O[C@@H]2O[C@@H]3O[C@@]4(C)CC[C@H]5[C@H](C)CC[C@@H]([C@H]2C)[C@@]35OO4)NC(=O)OC(C)(C)C)O[C@@H]2O[C@@]3(C)CC[C@H]4[C@H](C)CC[C@@H]1[C@@]24OO3` [Compound 7] registered an inhibition at 0.1 µM of 12%. The compound further registered an inhibition at 0.25 µM in assay [3] (0.25 μM) of 14%. For the same compound, the inhibition at 0.5 µM in assay [3] (0.5 μM) came out at 21%. In assay [3] (1.0 μM), the inhibition at 1 µM came out at 40%. Further, the IC50 was found to be 119 nM in assay [1] (setting [4]) and 602 nM in assay [2] (Homo sapiens, 72 hours, MTT).

For the compound `CC(=O)NC(COC(=O)CCC(=O)O[C@@H]1O[C@@H]2O[C@@]3(C)CC[C@H]4[C@H](C)CC[C@@H]([C@H]1C)[C@@]24OO3)(COC(=O)CCC(=O)O[C@@H]1O[C@@H]2O[C@@]3(C)CC[C@H]4[C@H](C)CC[C@@H]([C@H]1C)[C@@]24OO3)COC(=O)CCC(=O)O[C@@H]1O[C@@H]2O[C@@]3(C)CC[C@H]4[C@H](C)CC[C@@H]([C@H]1C)[C@@]24OO3` [Compound 9], the IC50 in the assay on HepG2 cell line (setting [6]) was 310 nM; in assay [1] (setting [4]) it was 66 nM; in assay [2] (Homo sapiens, 72 hours, MTT) it was 360 nM.

Consider `C[C@H]1[C@H](OC(=O)CCC(=O)OCC(COC(=O)CCC(=O)O[C@@H]2O[C@@H]3O[C@@]4(C)CC[C@H]5[C@H](C)CC[C@@H]([C@H]2C)[C@@]35OO4)(COC(=O)CCC(=O)O[C@@H]2O[C@@H]3O[C@@]4(C)CC[C@H]5[C@H](C)CC[C@@H]([C@H]2C)[C@@]35OO4)NC=O)O[C@@H]2O[C@@]3(C)CC[C@H]4[C@H](C)CC[C@@H]1[C@@]24OO3` [Compound 11], for which the IC50 in the assay on HepG2 cell line (setting [6]) stood at 550 nM.

For `C[C@H]1[C@H](OC(=O)CCC(=O)OCC(COC(=O)CCC(=O)O[C@@H]2O[C@@H]3O[C@@]4(C)CC[C@H]5[C@H](C)CC[C@@H]([C@H]2C)[C@@]35OO4)(COC(=O)CCC(=O)O[C@@H]2O[C@@H]3O[C@@]4(C)CC[C@H]5[C@H](C)CC[C@@H]([C@H]2C)[C@@]35OO4)NC(=O)C(F)(F)F)O[C@@H]2O[C@@]3(C)CC[C@H]4[C@H](C)CC[C@@H]1[C@@]24OO3` [Compound 12], the IC50 in the assay on HepG2 cell line (setting [6]) was 7800 nM.

`C[C@@H]1[C@@H](OC(=O)CCC(=O)NC(COC(=O)CCC(=O)O[C@@H]2O[C@@H]3O[C@@]4(C)CC[C@H]5[C@H](C)CC[C@@H]([C@H]2C)[C@@]35OO4)(COC(=O)CCC(=O)O[C@@H]2O[C@@H]3O[C@@]4(C)CC[C@H]5[C@H](C)CC[C@@H]([C@H]2C)[C@@]35OO4)COC(=O)CCC(=O)O[C@@H]2O[C@@H]3O[C@@]4(C)CC[C@H]5[C@H](C)CC[C@@H]([C@H]2C)[C@@]35OO4)O[C@H]2O[C@@]3(C)CC[C@@H]4[C@@H](C)CC[C@H]1[C@]24OO3` [Compound 13]: the IC50 worked out at 150 nM in assay [1] (setting [4]) and 14200 nM in assay [2] (Homo sapiens, 72 hours, MTT).

For `C[C@H]1[C@H](OC(=O)CC(CC(=O)O[C@@H]2O[C@@H]3O[C@]4(C)CC[C@H]5[C@H](C)CC[C@@H]([C@H]2C)[C@@]35OO4)C(=O)O[C@@H]2O[C@@H]3O[C@]4(C)CC[C@H]5[C@H](C)CC[C@@H]([C@H]2C)[C@@]35OO4)O[C@@H]2O[C@@]3(C)CC[C@H]4[C@H](C)CC[C@@H]1[C@@]24OO3` (some centres unmarked) [Compound 14], the IC50 in the assay with HepG2 cell line (setting [5]) worked out at 1300 nM.

On to `C[C@H]1[C@H](OC(=O)CCC(=O)OCCN(CCOC(=O)CCC(=O)O[C@@H]2O[C@@H]3O[C@@]4(C)CC[C@H]5[C@H](C)CC[C@@H]([C@H]2C)[C@@]35OO4)CCN(CCOC(=O)CCC(=O)O[C@@H]2O[C@@H]3O[C@@]4(C)CC[C@H]5[C@H](C)CC[C@@H]([C@H]2C)[C@@]35OO4)CCOC(=O)CCC(=O)O[C@@H]2O[C@@H]3O[C@@]4(C)CC[C@H]5[C@H](C)CC[C@@H]([C@H]2C)[C@@]35OO4)O[C@@H]2O[C@@]3(C)CC[C@H]4[C@H](C)CC[C@@H]1[C@@]24OO3` [Compound 15], for which the half-maximal inhibitory concentration (IC50) amounted to 275 nM in assay [1] (setting [4]) and 35200 nM in assay [2] (Homo sapiens, 72 hours, MTT).

For the compound `C[C@H]1[C@H](OC(=O)CCC(=O)OCCN(CCO)CCN(CCOC(=O)CCC(=O)O[C@@H]2O[C@@H]3O[C@@]4(C)CC[C@H]5[C@H](C)CC[C@@H]([C@H]2C)[C@@]35OO4)CCOC(=O)CCC(=O)O[C@@H]2O[C@@H]3O[C@@]4(C)CC[C@H]5[C@H](C)CC[C@@H]([C@H]2C)[C@@]35OO4)O[C@@H]2O[C@@]3(C)CC[C@H]4[C@H](C)CC[C@@H]1[C@@]24OO3` [Compound 16], the IC50 was determined as 217 nM in assay [1] (setting [4]) and 1110 nM in assay [2] (Homo sapiens, 72 hours, MTT).

`C[C@H]1[C@@H](O)O[C@@H]2O[C@@]3(C)CC[C@H]4[C@H](C)CC[C@@H]1[C@@]24OO3` [Dihydroartemisinin, reference compound] returned an inhibition at 0.25 µM in assay [3] (0.25 μM) of 5%. In assay [3] (0.5 μM), this compound had an inhibition at 0.5 µM of 10%. Besides, 1 µM produced 20% inhibition in assay [3] (1.0 μM). Also, the IC50 in assay [1] (setting [4]) worked out at 680 nM; in assay [2] (Homo sapiens, 72 hours, MTT) it was 9340 nM.

Broadly, the IC50 is the concentration needed to halve the response being measured. In general, inhibition refers to the change of the read-out against control, counted positive when it falls. Read a high inhibition as strong suppression.
